In ChEMBL document CHEMBL1126616, “1,2-Cyclomethylenecarboxylic monoamide hydroxamic derivatives. A novel class of non-amino acid angiotensin converting enzyme inhibitors” (J Med Chem, 1993):

target: T1, Angiotensin-converting enzyme (Rattus norvegicus, UniProt P47820); experiment: In vitro inhibitory activity against rat serum angiotensin I converting enzyme using hippuryl-glycyl-glycine as substrate; format: cell-free
T1 sequence (P47820 whole entry): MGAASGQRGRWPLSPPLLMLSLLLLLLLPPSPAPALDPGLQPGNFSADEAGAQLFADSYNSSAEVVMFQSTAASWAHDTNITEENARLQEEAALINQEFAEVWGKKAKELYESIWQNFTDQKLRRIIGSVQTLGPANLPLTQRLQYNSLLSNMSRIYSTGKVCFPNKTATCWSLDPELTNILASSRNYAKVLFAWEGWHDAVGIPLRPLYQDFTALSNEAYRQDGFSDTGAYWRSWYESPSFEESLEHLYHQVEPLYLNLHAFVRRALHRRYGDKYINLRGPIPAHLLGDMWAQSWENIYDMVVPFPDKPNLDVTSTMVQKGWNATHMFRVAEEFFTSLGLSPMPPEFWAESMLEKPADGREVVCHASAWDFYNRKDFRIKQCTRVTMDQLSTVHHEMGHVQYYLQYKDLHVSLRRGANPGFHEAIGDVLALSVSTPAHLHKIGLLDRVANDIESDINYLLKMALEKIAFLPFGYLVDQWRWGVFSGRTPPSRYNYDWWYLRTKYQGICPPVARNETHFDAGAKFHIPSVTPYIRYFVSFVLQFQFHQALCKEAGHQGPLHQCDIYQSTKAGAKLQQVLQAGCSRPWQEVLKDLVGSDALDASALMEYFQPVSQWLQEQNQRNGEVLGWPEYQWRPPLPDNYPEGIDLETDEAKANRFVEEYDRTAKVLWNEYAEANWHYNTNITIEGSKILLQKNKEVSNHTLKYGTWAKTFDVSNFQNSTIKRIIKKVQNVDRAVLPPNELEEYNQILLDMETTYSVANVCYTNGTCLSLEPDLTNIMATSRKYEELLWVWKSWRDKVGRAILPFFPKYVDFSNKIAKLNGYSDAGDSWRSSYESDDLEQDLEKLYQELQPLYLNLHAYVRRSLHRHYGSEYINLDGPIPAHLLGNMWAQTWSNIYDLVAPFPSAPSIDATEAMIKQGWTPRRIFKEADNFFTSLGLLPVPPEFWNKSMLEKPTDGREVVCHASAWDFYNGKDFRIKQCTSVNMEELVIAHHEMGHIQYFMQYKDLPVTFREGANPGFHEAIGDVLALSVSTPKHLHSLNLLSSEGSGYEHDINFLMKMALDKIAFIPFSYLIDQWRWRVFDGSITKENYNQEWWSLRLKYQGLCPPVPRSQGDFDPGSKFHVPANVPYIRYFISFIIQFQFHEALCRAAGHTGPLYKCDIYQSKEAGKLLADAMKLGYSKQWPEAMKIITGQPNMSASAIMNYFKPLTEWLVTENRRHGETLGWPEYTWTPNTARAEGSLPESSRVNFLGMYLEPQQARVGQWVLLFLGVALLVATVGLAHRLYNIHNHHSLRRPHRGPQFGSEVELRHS

SMILES | IC50
O=C(CNC(=O)C1CCCCC1C(=O)O)NOCc1ccccc1 (stereo in doubt; 9b) | > 150000 nM
O=C(O)CNC(=O)C1CCCCC1C(=O)O (stereo not given) | > 150000 nM
O=C(O)C1CCCCC1C(=O)CCS (trans isomer) | 1700 nM
CN(CC(=O)NOCc1ccccc1)C(=O)C1CCCC1C(=O)O (stereo not given) | > 150000 nM

Continued, values first:

IC50 | SMILES
2900 nM | CCN(CC(=O)NO)C(=O)C1CCCCC1C(=O)O (stereo in doubt; 21d)
150 nM | CCCN(CC(=O)NO)C(=O)C1CCCCC1C(=O)O (trans isomer)
500 nM | CC(C)N(CC(=O)NO)C(=O)C1CCCCC1C(=O)O (trans isomer)
18 nM | CCN(CC(=O)NO)C(=O)C1CCCCC1C(=O)O (stereo in doubt; 10g)
1500 nM | O=C(CNC(=O)C1CCCCC1C(=O)O)NO (trans isomer)
> 150000 nM | CCN(CC(=O)NOCc1ccccc1)C(=O)C1CCCCC1C(=O)O (cis isomer)
